According to patent publication US20230105212A1, “BIPHENYL DERIVATIVE INHIBITOR, PREPARATION METHOD THEREFOR AND USE THEREOF” (SHANGHAI HANSOH BIOMEDICAL CO., LTD., priority 2020, published 2023):
pIC50: −log10 of the molar value. Read-outs that look alike come from different tables or passages of the source.

How the values were obtained:
[1] = Plasma protein binding rate (equilibrium dialysis); type: in vitro ADME; conditions: mouse plasma, equilibrium dialysis 37° C. 5 hours
Method: Test Embodiment 8. Plasma Protein Binding Rate Experiment
The purpose of this experimental method was to detect the plasma protein binding of the embodiment compounds in plasma.
The frozen plasma was thawed at room temperature or in a water bath at 37° C., then centrifuged at 3500 rpm for 5 min, and the supernatant was taken.
Preparation of compound working solution: Stock solutions were diluted with DMSO to a final concentration of 1 mM.
2.5 μL of compound working solution was added to 497.5 μL of blank plasma to a final concentration of 5 μM, shaked and mixed well.
1) The equilibrium dialysis device was prepared, and the detection membrane device was put into the equilibrium dialysis 96-well plate;
2) 200 μL of the prepared plasma solution was added to the membrane, n=2;
3) another 5 μL of plasma solution was taken, diluted 10 times with 45 μL of blank plasma of the same species, and 200 μL of acetonitrile termination solution containing internal standard was added, and stored in a −20° C. refrigerator;
4) 350 μL of dialysate (100 mM phosphate buffer) was added outside the membrane;
5) the dialysis plate was sealed and incubated in a 37° C. water bath for 5 hours;
6) after dialysis, 5 μL was taken out from the sample hole in the membrane, and diluted 10 times with 45 μL of blank plasma of the same species; 50 μL of dialysate was taken out from the sample hole outside the membrane, and 200 μL of acetonitrile termination solution containing internal standard was added;
7) the supernatant was taken after sample centrifugation;

human PD-1/PD-L1 binding = biological target: T1, human PD-1/PD-L1 binding (Homo sapiens, UniProt Q9NZQ7); test: Inhibition of human PD-1/PD-L1 binding (TR-FRET/HTRF)
T1 construct: PD-L1-His protein (19 to 238 amino acids) (Abcam #ab167713); purchased Abcam (PD-L1-His); R&D (PD-1-Fc) ab167713; 1086-PD
Procedure, shortened: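 PD-L1-His (aa 19–238, diluted to 10 nM) and PD-1-Fc (aa 25–167, diluted to 20 nM) incubated with compounds (10 μM or 1 μM top, 3-fold, 11 doses) 60 min at room temperature, then anti-6HIS Eu cryptate/anti-human IgG-XL665 added for 3 h RT or overnight 4 °C. HTRF 665/620 nm ratio gave inhibition and IC50.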

human PD-L1 protein = biological target: T2, human PD-L1 protein (Homo sapiens, UniProt Q9NZQ7); test: Thermal shift: melting temperature of PD-L1 protein; type: binding; conditions: read-out: ΔTm (° C.)
T2 construct: purchased Acro Biosystems PD1-H5229
Procedure, shortened: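 Human PD-L1 at 2 μM final was tested in […], 150 mM NaCl with SYPRO Orange, heated 25→95 °C at 0.03 °C/s in a PCR melt-curve run. Tm was taken per treatment; ΔTm is the shift relative to DMSO vehicle.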

[2] = TR-FRET, PD-L1-His and PD-1-Fc, read-out: PD-1/PD-L1 binding IC50
[3] = compound 10 μM, PD-L1 protein 2 μM, Tm minus DMSO vehicle control

T2 sequence (Q9NZQ7 19-238 limits assumed): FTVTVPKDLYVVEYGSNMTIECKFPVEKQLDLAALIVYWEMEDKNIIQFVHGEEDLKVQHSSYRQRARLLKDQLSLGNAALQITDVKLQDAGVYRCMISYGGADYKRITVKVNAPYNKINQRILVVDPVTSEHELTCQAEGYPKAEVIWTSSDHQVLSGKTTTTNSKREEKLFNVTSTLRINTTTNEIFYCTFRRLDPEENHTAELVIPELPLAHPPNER
T1 sequence (Q9NZQ7 19-238): as the sequence (Q9NZQ7 19-238 limits assumed) above

Row | Compound | fraction unbound at 5 h, 5 μM [1] | pIC50 (human PD-1/PD-L1 binding; [2]) | ΔTm at 10 µM (human PD-L1 protein; [3]) | pIC50 (human PD-1/PD-L1 binding) | ΔTm at 10 µM (human PD-L1 protein)
1 | COc1nc(-c2cccc(-c3cccc(NC(=O)c4nc5c(n4C)CCN(C)C5)c3Cl)c2Cl)ccc1CN1CC(NC(C)=O)C1 [Embodiment 180, N-(3′-(5-((3-Acetylaminoazetidin-1-yl)methyl)-6-methoxypyridin-2-yl)-2,2′-dichloro-[1,1′-biphenyl]-3-yl)-1,5-dimethyl-4,5,6,7-tetrahydro-1H-imidazo[4,5-c]pyridine-2-carboxamide] | 0.0044 | 8.42 | 20.6 °C |  | 
2 | COc1nc(-c2cccc(-c3cccc(NC(=O)c4nc5c(n4C)CCN(C)C5)c3Cl)c2Cl)ccc1CN1CC2(C1)CN(C(=O)C(C)C)C2 [Embodiment 186, N-(2,2′-Dichloro-3′-(5-((6-isobutyryl-2,6-diazaspiro[3.3]heptan-2-yl)methyl)-6-methoxypyridin-2-yl)-[1,1′-biphenyl]-3-yl)-1,5-dimethyl-4,5,6,7-tetrahydro-1H-imidazo[4,5-c]pyridine-2-carboxamide] | 0.003 | 8.09 | 21.4 °C |  | 
3 | CCC(=O)N1CC2(CN(Cc3ccc(-c4cccc(-c5cccc(NC(=O)c6nc7c(n6C)CCN(C)C7)c5Cl)c4Cl)nc3OC)C2)C1 [Embodiment 188, N-(2,2′-Dichloro-3′-(6-methoxy-5-((6-propionyl-2,6-diazaspiro[3.3]heptan-2-yl)methyl)pyridin-2-yl)-[1,1′-biphenyl]-3-yl)-1,5-dimethyl-4,5,6,7-tetrahydro-1H-imidazo[4,5-c]pyridine-2-carboxamide] | 0.0052 |  |  | 8.20 | 16.5 °C
